Results: patent EP4324461A1, “(E)-N-CINAMOYLAMINOALKANOLES WITH MELANOGENESIS INHIBITORY ACTIVITY” (UNIWERSYTET JAGIELLONSKI, priority 2022, dated 2024)
pIC50: −log10 of the molar value. Read-outs that look alike come from different tables or passages of the source.

How the values were obtained:
[1] = Lipophilicity coefficient RM0 by reversed phase thin layer chromatography; type: physicochemical; details: RP-18 TLC, methanol / 100 mM phosphate buffer pH = 7.4
Procedure: Confirmation of the identity and purity of the obtained compounds consisted in the registration and interpretation of ^1H NMR and ^13C NMR spectra (the spectra were recorded using an ECZR 500 MHz (JEOL) series FT-NMR spectrophotometer), as well as the registration and interpretation of LC-MS spectra (the spectra were recorded using Acquita UPLC system (Waters) coupled with a Waters TQD mass spectrometer). The melting point was measured using the open capillary method in the IA9300 device (Electrothermal). The lipophilicity coefficient RM0 was determined by reversed phase thin layer chromatography. In the study, aluminum plates 20x20 cm covered with modified silica gel RP-18 F254 (Merck) were used as the solid phase. The mobile phase consisted of solutions of methanol and 100 mM phosphate buffer (pH = 7.4), characterized by a variable methanol content ranging from 95 to 65% (v/v). The tested compounds were dissolved in methanol to obtain solutions with a concentration of 1 mg/mL. Then, 5 µL of the solutions prepared in this way were transferred to the starting line on aluminum plates, which were then placed in chromatographic chambers previously saturated with mobile phase vapors for at least 1 hour. All activities, including the development of chromatograms, were carried out at room temperature. After developing the chromatograms to approximately 1-2 cm from the end of the plate, the plates were dried and then the distance traveled by the tested compounds was visualized under UV light (λ = 254 nm). The experiment was performed in duplicate for the specified conditions. For all samples, Rf was calculated according to the formula Rf = a/b, where a - the distance traveled by the tested compound, b - the distance traveled by the mobile phase. Then, the RM parameter was calculated for all samples according to the formula RM = log(1/Rf - 1), obtaining a linear relationship between the RM values and the methanol concentration in the mobile phase. The logP coefficient was also calculated using the following computer programs: ACD/ChemSketch 2020.1.2 and ChemDraw 20.0.0.41. Table 2. The physicochemical data of the compounds are presented below

[2] = tested on: B16-F10 murine melanoma cell line; assay: Cytotoxicity in B16-F10 cells (MTT); type: cell-based; details: 48 h
Procedure: In order to determine safe doses of compounds for testing the inhibition of melanogenesis in a murine melanoma cell line, cytotoxicity tests were performed. Cytotoxicity was determined by the colorimetric method using MTT ([3-(4,5-dimethyl-2-thiazolyl)-2,5-diphenyl-2H-tetrazolium bromide, Sigma M5655). For this purpose, cells were transferred to 96-well plates in an amount of 5000/well. After 24 h of culture in an incubator in F 10-Ham medium with 1% FBS, the tested compounds at various concentrations were added to the wells together with fresh medium. DMSO was added to the medium in a negative control. The MTT test was performed after further culture for 48 h. Then the medium was removed and the formed formazan crystals were dissolved in DMSO. The absorbance was measured at 570 nm in a plate reader and the result was compared to the control (DMSO), which was 100%. The percentage of viability was calculated using the formula: [AT/AC^∗100], where AT is the absorbance of the test sample, AC - absorbance of the control sample. Table 3. Results of inhibiting the activity of monophenolase […] tyrosinase and cytotoxicity testing in B16F10 cells for the described compounds.

[3] = tested on: tyrosinase from mushroom; assay: Inhibition of commercial mushroom tyrosinase (L-DOPA or L-tyrosine substrate); type: biochemical
Procedure: The following substrates were used for the enzymatic reaction: L-tyrosine and L-3,4-dihyroxyphenylalanine (L-DOPA). Both substrates were used in independent experiments. According to the literature, the use of L-DOPA enables the assessment of tyrosinase diphenolase activity, and L-tyrosine - the tyrosinase monophenolase activity. The determinations were performed in 96-well plates, in each well there was placed: 170 µL or 127.5 µL of 50 mM phosphate buffer (pH = 6.8) with tyrosinase (1U/well or 3U/well) and 10 µL of a solution of the tested compound in DMSO (the final concentration in the well was 500 µM, 250 µM or 125 µM). The negative control used 10 µL of pure solvent (DMSO). To initiate the reaction, an appropriate substrate was added: L-tyrosine (62.5 µL of solution in phosphate buffer) or L-DOPA (20 µL of solution in phosphate buffer). After a 25-minute incubation, the absorbance was measured at 475 nm using a microplate reader. The percentage of inhibition of tyrosinase activity was calculated using the formula: [(AC -AT)/AC] × 100, where AC - is the absorbance of the negative control, AT - is the absorbance of the sample containing the tested compound.

[4] = L-DOPA, read-out: Tyrosinase inhibition with L-DOPA, IC50
[5] = L-tyrosine, read-out: Tyrosinase inhibition with L-tyrosine, IC50

SMILES | RM0 [1] | Cytotoxicity study in B16F10 cells % viability ([2]; 150 µM) [%] | Cytotoxicity study in B16F10 cells % viability ([2]; 200 µM) [%] | Cytotoxicity study in B16F10 cells % viability ([2]; 250 µM) [%] | Tyrosinase inhibition with L-DOPA [%] ([3]; L-DOPA) | pIC50 [3, 4] | Tyrosinase inhibition with L-tyrosine [%] ([3]; L-tyrosine) | pIC50 [3, 5] | Tyrosinase inhibition with L-DOPA [%] ([3]; L-DOPA, concentration not given)
CC(C)C(CO)NC(=O)/C=C/c1ccc(Cl)cc1 (stereo not shown) [Compound A-106, (2E)-3-(4-chlorophenyl)-N-(1-hydroxy-3-methylbutan-2-yl)prop-2-enamide] | 2.76 | 85.9 | 88.1 | 72.6 | 41.17±0.81% (500 µM) | 3.04 | 57.62±2.11% (500 µM) | 3.39 | 
Cc1ccc(/C=C/C(=O)NCCCCO)cc1 [H-411/21, (2E)-N-(4-hydroxybutyl)-3-(4-methylphenyl)prop-2-enamide] | 2.27 | 50.6 | 34.9 | 41.2 | 16.89±7.94% (500 µM) |  | 20.43±2.09% (500 µM) |  | 
O=C(/C=C/c1ccc(Cl)cc1)N1CCC(O)CC1 [Compound A-99, (2E)-3-(4-chlorophenyl)-1-(4-hydroxypiperidin-1-yl)prop-2-en-1-one] | 2.27 | 109.8 | 102.6 | 96.6 |  | 3.35 | 75.14±1.60% (500 µM) | 3.75 | 54.87±1.47
CCC(O)CNC(=O)/C=C/c1ccc(Cl)cc1Cl (stereo not shown) [H-320/21, (2E)-3-(2,4-dichlorophenyl)-N-(2-hydroxybutyl)prop-2-enamide] | 3.08 | 101.7 | 90.8 | 33.9 | 5.8±3.04% (500 µM) |  | 24.43±8.05% (500 µM) |  | 
O=C(/C=C/c1ccc(Cl)cc1Cl)N1CCC(O)CC1 [H-310/20, (2E)-3-(2,4-dichlorophenyl)-1-(4-hydroxypiperidin-1-yl)prop-2-en-1-one] | 2.80 | 89.5 | 100.4 | 93.0 | 7.23±0.81% (500 µM) |  | 19.24±3.44% (500 µM) |  | 
O=C(/C=C/c1ccc(Cl)cc1Cl)NCCCCCO [H-297/20, (2E)-3-(2,4-dichlorophenyl)-N-(5-hydroxypentyl)prop-2-enamide] | 3.08 | 102.3 | 73.6 | 88.5 | 20.53±2.84% (500 µM) |  | 19.09±2.53% (500 µM) |  | 
O=C(/C=C/c1ccc(Cl)cc1Cl)NCCCO [H-296/20, (2E)-3-(2,4-dichlorophenyl)-N-(3-hydroxypropyl)prop-2-enamide] | 2.11 | 67.0 | 57.0 | 38.3 | 18.63±1.67% (500 µM) |  | 17.87±7.36% (500 µM) |  | 
